Measurements taken from PubChem BioAssay (NCI).
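Test compounds were applied to cells in 96-well plates for 48 hours at 5 doses. TGI: total growth inhibition.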

What was measured:
Assay in all cases: growth of human tumour cells (NCI), 48 h
SK-MEL-2 melanoma = test system: SK-MEL-2 melanoma
786-0 renal = test system: 786-0 renal
OVCAR-5 ovarian = test system: OVCAR-5 ovarian
RPMI-8226 leukemia = test system: RPMI-8226 leukemia
HCT-15 colon = test system: HCT-15 colon
SK-MEL-5 melanoma = test system: SK-MEL-5 melanoma
T-47D breast = test system: T-47D breast
SN12C renal = test system: SN12C renal
SK-OV-3 ovarian = test system: SK-OV-3 ovarian
M14 melanoma = test system: M14 melanoma
NCI/ADR-RES ovarian = test system: NCI/ADR-RES ovarian
A549 NSCLC = test system: A549 NSCLC
A498 renal = test system: A498 renal
KM12 colon = test system: KM12 colon
OVCAR-8 ovarian = test system: OVCAR-8 ovarian
SNB-19 CNS = test system: SNB-19 CNS
U251 CNS = test system: U251 CNS
EKVX NSCLC = test system: EKVX NSCLC
MCF7 breast = test system: MCF7 breast
NCI-H23 lung = test system: NCI-H23 lung
MOLT-4 leukemia = test system: MOLT-4 leukemia
MDA-N = test system: MDA-N
OVCAR-3 ovarian = test system: OVCAR-3 ovarian
HT29 colon = test system: HT29 colon
ACHN renal = test system: ACHN renal
MDA-MB-435 = test system: MDA-MB-435
NCI-H226 lung = test system: NCI-H226 lung
K-562 leukemia = test system: K-562 leukemia
CAKI-1 renal = test system: CAKI-1 renal
LOX IMVI melanoma = test system: LOX IMVI melanoma
BT-549 breast = test system: BT-549 breast
RXF 393 renal = test system: RXF 393 renal
UO-31 renal = test system: UO-31 renal
HCT-116 colon = test system: HCT-116 colon
MDA-MB-231 breast = test system: MDA-MB-231 breast
SR leukemia = test system: SR leukemia
NCI-H522 lung = test system: NCI-H522 lung
UACC-257 melanoma = test system: UACC-257 melanoma
SNB-75 CNS = test system: SNB-75 CNS
SF-268 CNS = test system: SF-268 CNS
NCI-H460 lung = test system: NCI-H460 lung
SF-539 CNS = test system: SF-539 CNS
HOP-62 NSCLC = test system: HOP-62 NSCLC
OVCAR-4 ovarian = test system: OVCAR-4 ovarian
TK-10 renal = test system: TK-10 renal
SK-MEL-28 melanoma = test system: SK-MEL-28 melanoma
CCRF-CEM leukemia = test system: CCRF-CEM leukemia
HS 578T breast = test system: HS 578T breast
MALME-3M melanoma = test system: MALME-3M melanoma
HCC-2998 colon = test system: HCC-2998 colon
UACC-62 melanoma = test system: UACC-62 melanoma
HL-60(TB) leukemia = test system: HL-60(TB) leukemia
DU-145 prostate = test system: DU-145 prostate
COLO 205 colon = test system: COLO 205 colon
PC-3 prostate = test system: PC-3 prostate
SW-620 colon = test system: SW-620 colon
HOP-92 NSCLC = test system: HOP-92 NSCLC
IGROV1 ovarian = test system: IGROV1 ovarian
SF-295 CNS = test system: SF-295 CNS

In the case of Nc1nc(SCC(=O)c2ccccc2)nc2nc3c(c(-c4ccccc4)c12)CCCC3, the TGI (SK-MEL-2 melanoma) is reported as > 100 µM, the TGI (786-0 renal) is reported as 56.1 µM and the TGI (OVCAR-5 ovarian) is reported as > 100 µM. The TGI (RPMI-8226 leukemia) was > 100 µM, the TGI (HCT-15 colon) was > 100 µM and the TGI (SK-MEL-5 melanoma) was > 100 µM. The TGI (T-47D breast) was > 100 µM, the TGI (SN12C renal) was > 100 µM and the TGI (SK-OV-3 ovarian) was 76.8 µM. The TGI (M14 melanoma) was > 100 µM, the TGI (NCI/ADR-RES ovarian) was > 100 µM and the TGI (A549 NSCLC) was > 100 µM. The TGI (A498 renal) was 42.9 µM, the TGI (KM12 colon) was > 100 µM and the TGI (OVCAR-8 ovarian) was 89 µM. The TGI (SNB-19 CNS) was > 100 µM, the TGI (U251 CNS) was > 100 µM and the TGI (EKVX NSCLC) was > 100 µM. For the same compound, the TGI (MCF7 breast) was > 100 µM, the TGI (NCI-H23 lung) was > 100 µM and the TGI (MOLT-4 leukemia) was > 100 µM. For the same compound, the TGI (MDA-N) was > 100 µM, the TGI (OVCAR-3 ovarian) was 94.5 µM and the TGI (HT29 colon) was > 100 µM. The TGI (ACHN renal) was > 100 µM, the TGI (MDA-MB-435) was > 100 µM and the TGI (NCI-H226 lung) was 62.7 µM. The TGI (K-562 leukemia) was > 100 µM, the TGI (CAKI-1 renal) was > 100 µM and the TGI (LOX IMVI melanoma) was 61.7 µM. The TGI (BT-549 breast) was > 100 µM, the TGI (RXF 393 renal) was 70.8 µM and the TGI (UO-31 renal) was > 100 µM. For the same compound, the TGI (HCT-116 colon) was > 100 µM, the TGI (MDA-MB-231 breast) was > 100 µM and the TGI (SR leukemia) was > 100 µM. For the same compound, the TGI (NCI-H522 lung) was > 100 µM, the TGI (UACC-257 melanoma) was > 100 µM and the TGI (SNB-75 CNS) was 78.6 µM. The TGI (SF-268 CNS) was 61.5 µM, the TGI (NCI-H460 lung) was > 100 µM and the TGI (SF-539 CNS) was > 100 µM. The TGI (HOP-62 NSCLC) was > 100 µM, the TGI (OVCAR-4 ovarian) was 66.4 µM and the TGI (TK-10 renal) was > 100 µM. For the same compound, the TGI (SK-MEL-28 melanoma) was 61.9 µM, the TGI (CCRF-CEM leukemia) was > 100 µM and the TGI (HS 578T breast) was 64 µM. The TGI (MALME-3M melanoma) was > 100 µM, the TGI (HCC-2998 colon) was > 100 µM and the TGI (UACC-62 melanoma) was > 100 µM. For the same compound, the TGI (HL-60(TB) leukemia) was > 100 µM and the TGI (DU-145 prostate) was > 100 µM.
COc1ccc2c(c1)CC[C@@H]1C2CC[C@]2(C)C(=O)N(C)C(=O)CC12 (some centres not stated) was tested, and the TGI (786-0 renal) was > 100 µM, the TGI (OVCAR-5 ovarian) was > 100 µM and the TGI (COLO 205 colon) was > 100 µM. For the same compound, the TGI (SK-MEL-5 melanoma) was > 100 µM, the TGI (T-47D breast) was > 100 µM and the TGI (SN12C renal) was > 100 µM. For the same compound, the TGI (SK-OV-3 ovarian) was > 100 µM, the TGI (M14 melanoma) was > 100 µM and the TGI (A549 NSCLC) was > 100 µM. The TGI (A498 renal) was > 100 µM, the TGI (KM12 colon) was > 100 µM and the TGI (OVCAR-8 ovarian) was > 100 µM. The TGI (SNB-19 CNS) was > 100 µM, the TGI (U251 CNS) was > 100 µM and the TGI (EKVX NSCLC) was > 100 µM. For the same compound, the TGI (MCF7 breast) was > 100 µM, the TGI (PC-3 prostate) was > 100 µM and the TGI (NCI-H23 lung) was > 100 µM. The TGI (MOLT-4 leukemia) was > 100 µM, the TGI (SW-620 colon) was > 100 µM and the TGI (MDA-N) was > 100 µM. The TGI (OVCAR-3 ovarian) was > 100 µM, the TGI (HT29 colon) was > 100 µM and the TGI (ACHN renal) was > 100 µM. For the same compound, the TGI (MDA-MB-435) was > 100 µM, the TGI (NCI-H226 lung) was > 100 µM and the TGI (HOP-92 NSCLC) was > 100 µM. The TGI (K-562 leukemia) was > 100 µM, the TGI (CAKI-1 renal) was > 100 µM and the TGI (BT-549 breast) was > 100 µM. For the same compound, the TGI (RXF 393 renal) was > 100 µM, the TGI (UO-31 renal) was > 100 µM and the TGI (HCT-116 colon) was > 100 µM. The TGI (MDA-MB-231 breast) was > 100 µM, the TGI (SR leukemia) was > 100 µM and the TGI (NCI-H522 lung) was > 100 µM. For the same compound, the TGI (UACC-257 melanoma) was > 100 µM, the TGI (SNB-75 CNS) was > 100 µM and the TGI (SF-268 CNS) was > 100 µM. For the same compound, the TGI (NCI-H460 lung) was > 100 µM, the TGI (SF-539 CNS) was > 100 µM and the TGI (HOP-62 NSCLC) was > 100 µM. The TGI (OVCAR-4 ovarian) was > 100 µM, the TGI (IGROV1 ovarian) was > 100 µM and the TGI (TK-10 renal) was > 100 µM. For the same compound, the TGI (SK-MEL-28 melanoma) was > 100 µM, the TGI (CCRF-CEM leukemia) was > 100 µM and the TGI (HS 578T breast) was > 100 µM. The TGI (MALME-3M melanoma) was > 100 µM, the TGI (HCC-2998 colon) was > 100 µM and the TGI (UACC-62 melanoma) was > 100 µM. For the same compound, the TGI (HL-60(TB) leukemia) was > 100 µM, the TGI (DU-145 prostate) was > 100 µM and the TGI (SF-295 CNS) was > 100 µM.
